Results from article PMC7142633, “Impact of B-Ring Substitution and Acylation with Hydroxy Cinnamic Acids on the Inhibition of Porcine α-Amylase by Anthocyanin-3-Glycosides” (Foods, 2020).
Where two headings read alike, the source gives them in different places. Marks after values point to notes of the source that are not given here.

Tests used:
[1] = molecular target: T1, α-amylase from porcine pancreas (Sus scrofa, UniProt P00690); test: Isothermal titration calorimetry, single injection, GalG2CNP conversion; type: biochemical; conditions: 100 µM inhibitor, 0.95 mM substrate, 37 °C
T1 construct: A saline suspension of α-amylase from porcine pancreas; purchased Sigma Aldrich (Steinheim, Germany) Lot #SLBN9170V (catalogue number not given); host or cells: porcine pancreas (tissue-derived)
T1 sequence (P00690 16-511): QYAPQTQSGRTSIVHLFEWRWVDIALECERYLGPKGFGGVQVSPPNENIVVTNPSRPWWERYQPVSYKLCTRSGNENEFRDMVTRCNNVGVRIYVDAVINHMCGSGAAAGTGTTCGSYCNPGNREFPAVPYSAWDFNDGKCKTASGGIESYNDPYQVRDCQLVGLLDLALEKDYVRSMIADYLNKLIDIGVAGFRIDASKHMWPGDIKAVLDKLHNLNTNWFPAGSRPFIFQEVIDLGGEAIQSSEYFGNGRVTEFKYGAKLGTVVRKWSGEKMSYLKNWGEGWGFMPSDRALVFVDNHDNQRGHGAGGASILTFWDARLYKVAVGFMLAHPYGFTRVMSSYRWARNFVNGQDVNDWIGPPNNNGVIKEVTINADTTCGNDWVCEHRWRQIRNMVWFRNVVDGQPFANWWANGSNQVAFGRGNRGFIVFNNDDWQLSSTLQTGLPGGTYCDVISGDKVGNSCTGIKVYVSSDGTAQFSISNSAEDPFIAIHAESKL
Method: To evaluate the inhibitory strength of 100 µM anthocyanin-3-glucosides and black carrot anthocyanins, GalG2CNP conversion to CNP was monitored by the released heat. According to the previous study, ITC measurements were carried out in a single injection experiment set-up on a MICROCALTM PEAQ-ITC calorimeter (S/N MAL1188053, Malvern Panalytical Almelo, Netherlands). Following an equilibration time of 10 min, 1 µL α-amylase (1 µM in 50 mM MES^+ buffer) was added to 0.95 mM of the substrate with or without 100 µM of the phenolic inhibitor in the cell (Vcell = 0.207 mL). The temperature was maintained at 37 °C and the sample was stirred at 750 rpm throughout. The feedback/gain mode was set to high. The resulting heat profile was transformed and the conversion rate was plotted against the substrate concentration [S] by an origin routine template provided by Malvern® for Origin version 7.

[2] = molecular target: T1, α-amylase from porcine pancreas; test: α-amylase enzyme activity assay, GalG2CNP conversion, UV/Vis detection of CNP at 405 nm; type: biochemical; conditions: for IC50: read-out: IC50 (Cheng−Prussoff, Equation (9)); for Kmapp / vmaxapp: Michaelis Menten fit
Method: The enzyme activity assay, […], was established by Homoki and co-workers and already used by the authors to evaluate the inhibitory strength of different phenolic structures. To enable the evaluation of the result obtained in the present study compared to the non-anthocyanin phenolics investigated previously, the assay conditions were identical. In short, to 12 different GalG2CNP concentrations ([S] = 0−2000 µM) in MES^+ buffer, inhibitor [I] and 50 µL enzyme solution (c = 1.51 units/~100 pM, on the basis of supplier information) were mixed in a microtiter plate (Greiner BioOne, Frickenhausen, Germany; transparent, F-bottom). For blanks, the enzyme solution was substituted with MES^+ buffer. The final volume per well was 250 µL. To quantify the reaction product, a linear calibration with eight different CNP concentrations in the range of 0−35 µM was performed for each plate. Dilutions of the anthocyanin stock solutions (0.1% HCl) were equilibrated at pH 6.1 for one hour. Final inhibitor concentrations were limited due to its strong absorption at 405 nm to 12.5, 25, and 50 µM. For each anthocyanin structure, the assay was conducted on two to three different days with freshly prepared stocks of substrate, enzyme, and inhibitor.
In addition to the Michaelis Menten constant (Km) and the maximal conversion rate (vmax) values (Table S1), inhibition constants (Kic, Kiu) were calculated by fitting the data by two approaches: (i) According to the mixed inhibition equation (Equation (4)) or competitive inhibition equation (Equation (5)), applying an optimal global fit containing data from all inhibitor concentrations including the control ([I] = 0 µM); and (ii) by an independent fit according to the Michaelis Menten equation (Equation (6)), providing the apparent values Km^app and Vmax^app (Table S2) for each inhibitor concentration, which were then used to calculate the inhibition constants (Equations (7) and (8)). (4) v0= vmax/Km/[S] · (1+[I]/Kic)+(1+[I]/Kiu), (5) v0=vmax/Km/[S] · ( 1+[I]/Kic)+1, (6) v0=vmax · [S]/Km+[S], (7) Kic=vmax^app/Km^app · [I]/vmax/Km−vmax^app/Km^app, (8) Kiu=vmax^app · [I]/vmax− vmax^app.
The IC50 values of the different anthocyanins were derived from the inhibition constants for different substrate concentrations by the Cheng−Prusoff equation (Equation (9)). (9) IC50=(Km+[S])/Km/Kic+[S]/Kiu.
• KM: Michaelis Menten constant (µM) • vmax: Maximal conversion rate of the uninhibited reaction (µM/min) • v0: Observed conversion rate at given substrate and inhibitor concentration (µM/min) • [S]: Substrate concentration • [I]: Inhibitor concentration • Kic: Inhibitor constant, reflecting the competitive inhibition in the equation (µM) • Kiu: Inhibitor constant, reflecting the uncompetitive inhibition in the equation (µM) • vmax^app: Calculated maximal conversion rate, when the Michaelis Menten equation is used on an inhibited curve (µM/min) • Km^app: Calculated Michaelis Menten constant, when the Michaelis Menten equation is used on an inhibited curve (µM) • IC50: Half maximal inhibitory concentration (inhibitor concentration needed to achieve 50% inhibition; it is dependent on the substrate concentration) (µM)
For data analyses and calculations, Origin 2018b (OriginLab, software extension Enzyme Kinetics) was used. The Levenberg−Marquardt algorithm procedure was chosen for iteration. All assays were performed in two independent replicates at different dates. Values are expressed in arithmetic means ± average deviation (AD). The statistical significance and differences between groups were analyzed by one-way analysis of variance (ANOVA), followed by Tukey’s test. Differences were considered significant when p < 0.05. Data were processed using Microsoft Excel® (2010).

IC50 ([2]; (i) Kic and Kiu by global fit, [S] 10 µM): 112 ± 40 µM
IC50 ([2]; (i) Kic and Kiu by global fit, [S] 100 µM): 134 ± 46 µM
IC50 ([2]; (i) Kic and Kiu by global fit, [S] 10^3 µM): 209 ± 65 µM
IC50 ([2]; (i) Kic and Kiu by global fit, [S] 10^6 µM): 258 ± 78 µM
Kic/Kiu ([2]; (i) global fit, Equation (4)): 0.42 ± 0.23 ^a
Ki ([2]; (i) global fit, mixed inhibition Equation (4), read-out: Kic): 109 ± 39 µM
Ki ([2]; (i) global fit, mixed inhibition Equation (4), read-out: Kiu): 258 ± 78 µM
IC50 ([2]; (ii) Kic and Kiu by independent fit, [S] 10 µM): 121 ± 42 µM
IC50 ([2]; (ii) Kic and Kiu by independent fit, [S] 100 µM): 142 ± 49 µM
IC50 ([2]; (ii) Kic and Kiu by independent fit, [S] 10^3 µM): 212 ± 69 µM
IC50 ([2]; (ii) Kic and Kiu by independent fit, [S] 10^6 µM): 254 ± 82 µM
Ki ([2]; (ii) independent Michaelis Menten fit (Equation (6)), calculation by Equation (7), read-out: Kic): 118 ± 42 µM
Ki ([2]; (ii) independent Michaelis Menten fit (Equation (6)), calculation by Equation (8), read-out: Kiu): 254 ± 82 µM
Kic/Kiu ([2]; (ii) independent fit, Equations (7) and (8)): 0.43 ± 0.04 **^a
Kmapp ([2]; inhibitor c 25 µM): 242 ± 8 µM
vmaxapp ([2]; inhibitor c 25 µM): 0,74 ± 0,14 µM/min
Kmapp ([2]; inhibitor c 50 µM): 256 ± 7 µM
vmaxapp ([2]; inhibitor c 50 µM): 0,65 ± 0,05 µM/min
Kmapp ([2]; inhibitor c 12,5 µM): 211 ± 15 µM
vmaxapp ([2]; inhibitor c 12,5 µM): 0,77 ± 0,12 µM/min
Ki ([2]; from apparent values, inhibitor c 25 µM, read-out: Kic): 107 ± 15 µM
Ki ([2]; from apparent values, inhibitor c 25 µM, read-out: Kiu): 250 µM
Ki ([2]; from apparent values, inhibitor c 50 µM, read-out: Kic): 112 ± 45 µM
Ki ([2]; from apparent values, inhibitor c 50 µM, read-out: Kiu): 262 ± 92 µM
Ki ([2]; from apparent values, inhibitor c 12,5 µM, read-out: Kic): 180 µM
Ki ([2]; from apparent values, inhibitor c 12,5 µM, read-out: Kiu): 360 µM
Ki ([2]; mean over inhibitor c 12,5, 25, 50 µM (Supplementary 2), read-out: Kic mean ± SD): 133 ± 40 µM
Ki ([2]; mean over inhibitor c 12,5, 25, 50 µM (Supplementary 2), read-out: Kiu mean ± SD): 290 ± 61 µM
Compound: COc1cc(-c2[o+]c3cc(O)cc(O)c3cc2O[C@@H]2O[C@H](CO)[C@@H](O)[C@H](O)[C@H]2O)ccc1O [Peo-glc, peonidin-3-glucoside]
inhibitory strength by ITC (thermogram, Michaelis Menten plot) [1]: Mlv-3-glc > Cyd-3-glc > Dpd-3-glc~Peo-3-glc
